Test [1] relates to stem cell markers Klf4, Nanog, c-Myc, and Sox2 in ADSCs. The test is described as follows: Semi-quantitative RT-PCR of stem cell markers in ADSCs cultured on coated dish. In kind it is cell-based, murine. An excerpt: The result was expressed as a relative value based on the value of mIgG defined as 1. Error bar indicates standard deviation. Asterisk(s) indicate the result of the t-test; where * means P<0.05; ** means P<0.01; and *** means P<0.001.
The result was expressed as a relative value with respect to the value of vehicle defined as 1. Error bar indicates standard deviation in three experiments. Asterisk(s) indicate the result of t-test; where * means P<0.05; ** means P<0.01; and *** means P<0.001.
RNA extraction and RT-PCR were performed using a common method previously described (Sugimoto, et al., PLoS One, 2013, 10: e751062013). […] Semi-quantitative PCR was performed using the GoTaq Green Master Mix Kit (Promega) and primers [Sox2 (5′-[…]-3′ (SEQ ID NO: 23), and 5′-[…]-3′ (SEQ ID NO: 24)); c-Myc (5′-[…]-3′ (SEQ ID NO: 25), and 5′-[…]-3′ (SEQ ID NO: 26)); Nanog (5′-[…]-3′ (SEQ ID NO: 27), and 5′-[…]-3′ (SEQ ID NO: 28)); Klf4 (5′-[…]-3′ (SEQ ID NO: 29), and 5′-[…]-3′ (SEQ ID NO: 30)); and Gapdh (5′-[…]-3′ (SEQ ID NO: 31), and 5′-[…]-3′ (SEQ ID NO: 32))] to amplify the target sequences. […] Then the brightness in a region corresponding to the molecular weight of interest was quantified using the ImageJ (National Institute of Health (NIH)) and statistically analyzed.

The test system of test [2] is ADSCs (adipose-derived stem cells). The test is described as follows: Cell proliferation assay, BrdU-positive divided by DAPI-positive cells. Format: cell-based, murine. The method, then: The result was expressed as a relative value based on the value of mIgG defined as 1. Error bar indicates standard deviation. Asterisk(s) indicate the result of t-test; where * means P<0.05; ** means P<0.01; and *** means P<0.001.
The results are shown relative to the total cell number defined as 1. P-value was calculated by a chi-square test (n=353, n=501).
Cells (4×10^4 cells) were inoculated in a 6-well culture dish, and, 24 hours later, treated with 5-bromo-2′-deoxyuridine (BrdU; #B-5002, Sigma-Aldrich) at the final concentration of 10 μM for 2 hours, and then fixed with 4% PFA. Then, the sample was stained according to the method recommended by the manufacturer, and imaged with a fluorescent phase-contrast microscope (OLYMPUS IX71, Olympus Corporation) and a DP Controller. The number of BrdU-positive particles was divided by that of DAPI-positive ones to obtain a proliferated cell number.

Test [3] has as its system F9 cells expressing JAM-B and JAM-C. Kind of test: Cell adhesion assay, crystal violet staining of adhered F9 cells. In kind it is cell-based. The settings on record: coating at 286 ng/cm^2 in 96-well dish; 30 min after adding cells; relative to vehicle defined as 1. The protocol: JAM-C D1 (286 ng/cm^2) was added to a 96-well plastic culture dish, then F9 stem cells were added thereto, and after 30 min the number of adhered cells was measured with crystal violet staining, while performing no coating as a negative control, and using type I collagen (1,430 ng/cm^2) and rJAM-C (1,430 ng/cm^2) as positive controls. The cell number was expressed as a relative value based on the value of the vehicle defined as 1. Error bar indicates standard deviation. Asterisk(s) indicate the result of the t-test; where * means P<0.05; and *** means P<0.001.
(§1) For each of recombinant soluble JAM-C (polypeptide obtained by linking the Fc region of human IgG1 to the C-terminus of the extracellular domain (Met 1-Asn 241) of human JAM-C; Sino Biological) and murine IgG (GE Healthcare), 20, 100, or 500 ng volume thereof was diluted in 50 μL PBS and disposed into a 96-well round-bottom plate, which was then left standing at 30° C. for 12 hours. As a positive control, 500 ng of collagen Cellmatrix type I-A (Nitta Gelatin Inc.) was processed in the same manner. […]
After washing twice with PBS, ADSCs were detached using a 0.25% trypsin/1 mM EDTA solution and inoculated to the above plate and cultured in a CO2 incubator at 37° C. for 30 min. […] Finally, 50 μL of 5% SDS was used for lysis, and the absorbance was measured at 560 nm wavelength. […]

Test [4] concerns ADSCs (adipose-derived stem cells). Kind of test: Cell adhesion assay, crystal violet staining of adhered ADSCs. In kind it is cell-based. The following applies: coating at 20, 100, and 500 ng per well in 96-well plate; 30 min after adding cells; versus murine IgG control. The method, then:
The rJAM-C, or murine IgG (mIgG) as a negative control (both in 20, 100, and 500 ng (57, 286, and 1,430 ng/cm^2, respectively)), and type I collagen (500 ng) as a positive control were added to a 96-well plastic culture dish, and then ADSCs were added. After 30 min, the number of adhered cells was measured by crystal violet staining, and the relative absorbance was measured. The absorbance was expressed by a relative absorbance based on the result of the vehicle defined as 1. Error bar indicates standard deviation. Asterisk(s) indicate the result of t-test; where * means P<0.05; and *** means P<0.001.
as §1
After washing twice with PBS, ADSCs were detached using a 0.25% trypsin/1 mM EDTA solution and inoculated to the above plate and cultured in a CO2 incubator at 37° C. for 30 min. […] Finally, 50 μL of 5% SDS was used for lysis, and the absorbance was measured at 560 nm wavelength.

With DPRIEWKKI [JAM-C D1], in test [1] (ADSCs in 6-well dish coated at 52 ng/cm^2, relative to vehicle defined as 1), the “expression of stem cell markers Nanog, Klf4, Sox2, and c-Myc” value was “significantly increased”. For the same molecule, in test [2] (ADSCs in 6-well dish coated at 52 ng/cm^2, chi-square test), the “proliferation ability (BrdU-positive / DAPI-positive cells)” value was “significantly increased”. The “adhesion of F9 cells (adhered cell number)” value in test [3] is given as “significantly increased”.

B1: rJAM-C: polypeptide obtained by linking the Fc region of human IgG1 to the C-terminus of the extracellular domain (Met 1-Asn 241) of human JAM-C; Sino Biological (protein)
chain: EAVNLKSSNRNPVVHEFESVELSCIITDSQTSDPRIEWKKIQDGQTTYVYFDNKIQGDLAGRTDVFGKTSLRIWNVTRSDSAIYRCEVVALNDRKEVDEITIELIVQVKPVTPVCRIPAAVPVGKTATLQCQESEGYPRPHYSWYRNDVPLPTDSRANPRFQNSSFHVNSETGTLVFNAVHKDDSGQYYCIASNDAGAARCEGQDMEVYDLN
In the case of B1, the “expression of stem cell markers Klf4, Nanog, c-Myc, and Sox2” value in test [1] (ADSCs in 12-well dish coated at 132 ng/cm^2, cultured 48 hours, relative to mIgG defined as 1) is listed as “significantly increased”. Further, the “adhesion of ADSCs (adherent cell number, relative absorbance)” value in test [4] was “significantly increased”. Also, the “proliferation ability (BrdU-positive / DAPI-positive cells)” value in test [2] (ADSCs in 6-well dish coated at 104 ng/cm^2, relative to mIgG defined as 1) is recorded as “about 2 fold”.

These data come from patent publication US20210269478A1, “ADJUVANT FOR CELL CULTURE” (FUKUSHIMA MEDICAL UNIVERSITY, priority 2018, published 2021).
